Results from article PMC8204796 (ACS Pharmacology & Translational Science, 2021).

Tested on: NPC1^I1061T patient-derived fibroblast cells (GM18453)
Test: LipidTox Red lipid droplet staining
Format: cell-based, human
Conditions: 10 μM, 48 h, vs DMSO

## CC(=O)Nc1ccc(C(=O)Nc2ccccc2N)cc1 [CI-994]
  Lipid droplet formation (LipidTox Red): increases lipid droplet formation
